Data reported in article PMC7108845, “An Alphaherpesvirus Exploits Antimicrobial β-Defensins To Initiate Respiratory Tract Infection” (Journal of Virology, 2020).

Assays:
EHV1 (isolate 03P37) = assay type: cell-based, equine herpesvirus type 1
[1] = tested on: equine polymorphonuclear (PMN) cells; assay: CytoSelect cell migration (chemotaxis) assay; conditions: 0 to 10 μg/ml; 96-well Boyden chamber, 5-μm pores; RFU; three donor horses
[2] = tested on: EHV1 particles binding to EREC; assay type: cell-based, equine herpesvirus type 1
[3] = tested on: EHV1 particles binding to RK13 cells; assay type: cell-based, equine herpesvirus type 1
[4] = tested on: equine CD3+ T lymphocytes; assay: CytoSelect cell migration (chemotaxis) assay; conditions: 0 to 10 μg/ml; 96-well Boyden chamber, 5-μm pores; RFU; three donor horses
EIV = assay type: cell-based, equine influenza virus
[5] = tested on: equine influenza virus (A/equine/Kentucky/98, H3N8); assay type: cell-based
[6] = tested on: equine CD172a+ monocytic cells; assay: CytoSelect cell migration (chemotaxis) assay; conditions: 0 to 10 μg/ml, 96-well Boyden chamber
[7] = tested on: Streptococcus equi subsp. zooepidemicus (4001); assay: MIC assay, bacterial growth inhibition; assay type: cell-based; conditions: Gram-positive; Mueller-Hinton II broth, ~10^6 CFU/ml, 0 to 100 μg/ml eBD, 24 h, 37°C, 5% CO2; lowest concentration with no visible bacterial growth
Protocol: (§1) To ensure that eBD1, -2, and -3 are potent antimicrobial peptides, a MIC test was performed to determine inhibition of the growth of a number of Gram-positive and Gram-negative bacteria found in the equine respiratory tract by eBDs. The examined concentration range of eBDs ([…] to 100 μg/ml) was chosen based on the antimicrobially active concentration range of human BDs ([21][–][25]).
(§2) Clinical bacterial isolates were used in a MIC assay to investigate the sensitivity of bacterial pathogens from the equine respiratory tract to eBDs. The test organisms included the Gram-positive bacteria Streptococcus equi subsp. zooepidemicus (strain 4001), Streptococcus equi subsp. equi (strain 3830), Staphylococcus aureus (strain 3939), and Rhodococcus equi (strain 3851) and the Gram-negative bacteria Actinobacillus equuli subsp. equuli (strain 4005) and Bordetella bronchiseptica (strain 3033). All organisms were grown on Oxoid sheep blood agar plus plates (Thermo Fisher Scientific) overnight in a humidified incubator (5% CO2) at 37°C. Inocula were prepared by swabbing bacterial colonies from the plates, suspending them in PBS (turbidity equivalent to a 0.5 McFarland standard), and diluting this suspension 1:100 in Mueller-Hinton II (MH) broth (BD Biosciences, San Jose, CA, USA), achieving a final concentration of approximately 10^6 CFU/ml. eBDs were serially 2-fold diluted in MH broth at concentrations ranging from 200 μg/ml to 0.02 μg/ml and pipetted into 96-well microtiter plates (Greiner Bio, Kremsmünster, Austria). The inoculum was added to the eBD dilutions 1:1, and the bacteria were incubated in a humidified incubator (5% CO2) at 37°C for 24 h. MIC values were determined as the lowest concentration of eBD at which there was no visible bacterial growth.

[8] = tested on: Staphylococcus aureus (3939); assay: MIC assay, bacterial growth inhibition; assay type: cell-based; conditions: Gram-positive; Mueller-Hinton II broth, ~10^6 CFU/ml, 0 to 100 μg/ml eBD, 24 h, 37°C, 5% CO2; lowest concentration with no visible bacterial growth
Protocol: as §1, §2

Rhodococcus equi (3851) = assay: MIC assay, bacterial growth inhibition; assay type: cell-based; conditions: Gram-positive; Mueller-Hinton II broth, ~10^6 CFU/ml, 0 to 100 μg/ml eBD, 24 h, 37°C, 5% CO2; lowest concentration with no visible bacterial growth
Protocol: as §1, §2

[9] = tested on: Bordetella bronchiseptica (3033); assay: MIC assay, bacterial growth inhibition; assay type: cell-based; conditions: Gram-negative; Mueller-Hinton II broth, ~10^6 CFU/ml, 0 to 100 μg/ml eBD, 24 h, 37°C, 5% CO2; lowest concentration with no visible bacterial growth
Protocol: as §1, §2

[10] = tested on: Streptococcus equi subsp. equi (3830); assay: MIC assay, bacterial growth inhibition; assay type: cell-based; conditions: Gram-positive; Mueller-Hinton II broth, ~10^6 CFU/ml, 0 to 100 μg/ml eBD, 24 h, 37°C, 5% CO2; lowest concentration with no visible bacterial growth
Protocol: as §1, §2

[11] = tested on: Actinobacillus equuli subsp. equuli (4005); assay: MIC assay, bacterial growth inhibition; assay type: cell-based; conditions: Gram-negative; Mueller-Hinton II broth, ~10^6 CFU/ml, 0 to 100 μg/ml eBD, 24 h, 37°C, 5% CO2; lowest concentration with no visible bacterial growth
Protocol: as §1, §2

[12] = tested on: equine arteritis virus (08P178); assay type: cell-based
EHV1 = assay type: cell-based, equine herpesvirus type 1
EHV1 RacL11 ΔgM = assay type: cell-based, equine herpesvirus type 1
EHV1 RacL11 Δgp2 = assay type: cell-based, equine herpesvirus type 1
EHV1 RacL11 = assay type: cell-based, equine herpesvirus type 1

Compound | protection of cells from subsequent EHV1 infection (EHV1 (isolate 03P37)) | concentration of maximal migration of equine PMN cells [1] [ng/mL] | number of EHV1 particles bound per EHV1-positive EREC [2] | percentage of EREC with bound EHV1 particles [2] | percentage of RK13 cells with bound EHV1 particles [3] | concentration of maximal migration of equine T lymphocytes [4] [µg/mL] | EIV entry in EREC (EIV) | EIV infectivity in EREC (EIV) | protection of cells from subsequent EIV infection [5] | chemotaxis of equine monocytic cells [6] | MIC [7] [µg/mL] | MIC [8] [µg/mL] | MIC (Rhodococcus equi (3851)) [µg/mL] | MIC [9] [µg/mL] | MIC [10] [µg/mL] | MIC [11] [µg/mL] | protection of cells from subsequent EAV infection [12] | average EHV1 plaque diameter (EHV1 (isolate 03P37)) | increase in EHV1 infection in RK13 cells (number of plaques and plaque diameter) (EHV1 (isolate 03P37)) [fold] | EHV1 infection of EREC (EHV1) | further results
Nc1nc(O)c2ncn(COC(CO)CO)c2n1 [ganciclovir, reference compound] |  |  |  |  |  |  |  |  |  |  |  |  |  |  |  |  |  |  |  |  | formation and spread of EHV1 plaques (EHV1 (isolate 03P37)): almost completely blocked
MRAPYFLLLTLCLFCCQMSSGVGYLTGLGHRSDHYICARSGGTCHFSSCPLFTKIEGTCYGGKAKCCL (also: bicyclic or more (positions not given here)) [eBD1, chemically synthesized equine β-defensin, named according to its human homolog] | failed to protect | 1 | did not significantly differ | 17% ± 6% | 0.78% ± 0.76% | 1 | no effect on EIV entry | did not alter EIV infectivity | failed to protect | failed to induce | >100 | >100 | >100 | >100 | >100 | >100 | failed to protect |  |  |  | 
MRIHFLLFALLFLFLMPVPGNGGIINMLQKSYCKIRKGRCALLGCLPKEEQIGSCSVSGRKCCRKKK (also: bicyclic or more (positions not given here)) [eBD3, chemically synthesized equine β-defensin, named according to its human homolog] | failed to protect | 1 | doubled | 36% ± 8% | 1.26% ± 1.34% | 1 | no effect on EIV entry | did not alter EIV infectivity | failed to protect |  | >100 | >100 | 25 | 100 | 100 | 25 | failed to protect | doubling | 3.5 | not able to infect EREC more efficiently | EHV1 infectivity (EHV1 (isolate 03P37)): no effect; increase in susceptibility of RK13 cells to EHV1 (number of plaques) (EHV1 (isolate 03P37)): 1.5 fold; virus particles bound per positive RK13 cell, relative to eBD1 or control pretreatment [3]: up to 2 fold; EIV infection of EREC (EIV): diminishing subsequent infection of EREC; EIV infection of MDCK cells [5]: almost completely preventing infection; EIV infectivity [5]: decreased; formation of EIV plaques in MDCK cells [5]: decreased; concentration of maximal migration of equine monocytic cells ([6]; 5-μm pores, RFU, three donor horses, P < 0.05): 1 µg/mL; EAV infectivity [12]: no effect; formation of EAV plaques in RK13 cells [12]: decreased
MRILHFLLAFLIVFLLPVPGFTAGIETSFSCSQNGGFCISPKCLPGSKQIGTCILPGSKCCRKK (also: bicyclic or more (positions not given here)) [eBD2, chemically synthesized equine β-defensin, named according to its human homolog] | failed to protect |  | did not significantly differ | 17% ± 5% | 0.86% ± 0.97% | 1 | no effect on EIV entry | did not alter EIV infectivity | failed to protect | failed to induce | >100 | >100 | >100 | 100 | >100 | 25 | failed to protect | doubling | 3.5 | not able to infect EREC more efficiently | virus particles bound per positive RK13 cell, relative to eBD1 or control pretreatment [3]: up to 2 fold; infectivity of RacL11 ΔgM in RK13 cells (EHV1 RacL11 ΔgM): diminished; infectivity of RacL11 Δgp2 in RK13 cells (EHV1 RacL11 Δgp2): increase in infectivity; EIV infection of EREC (EIV): diminishing subsequent infection of EREC; formation of EIV plaques in MDCK cells [5]: decreased; formation of EAV plaques in RK13 cells [12]: decreased; infectivity of parental RacL11 strain in RK13 cells (EHV1 RacL11): enhanced
heparin [reference compound] |  |  |  |  |  |  |  |  |  |  |  |  |  |  |  |  |  |  |  |  | EHV1 final plaque diameter in RK13 cells (EHV1 (isolate 03P37)): did not alter; EHV1 plaque formation in RK13 cells (EHV1 (isolate 03P37)): inhibited
